EC50 data for 59 compounds are collected here from patent US12162867B2, “Inhibitors of RNA helicase DHX9 and uses thereof” (ACCENT THERAPEUTICS, INC., priority 2022, dated 2024).

In one assay the test system is circBRIP1 in HCT116 cells. Kind of assay: DHX9 circBRIP1 cellular target engagement SYBR Green assay (qPCR). It counts as cell-based. The conditions noted are these: Homo sapiens, HCT-116, circBRIP1, HCT116 cells; SyBr assay (marked ^+); read-out: DHX9 Cellular Target Engagement EC50. On the technique in general: Real-time PCR tracks product formation cycle by cycle.
Consider `CS(=O)(=O)Nc1cc(Cl)cc(NC(=O)c2cnn([C@@H]3CCCC[C@@H]3O)c2)c1` (relative stereo) [Example 153, N-(3-chloro-5-(methylsulfonamido)phenyl)-1-(2-cis-hydroxycyclohexyl)-1H-pyrazole-4-carboxamide], for which the EC50 was determined as 6.11 µM. The same measure, in the same setting: for `CS(=O)(=O)Nc1cc(Cl)cc(NC(=O)c2cnn([C@H]3CCC[C@H](O)C3)c2)c1` (single isomer, unassigned) [Example 152a] the value was more than 10 µM. The same measure, in the same setting: for `CS(=O)(=O)Nc1cc(Cl)cc(NC(=O)c2cnn([C@H]3CC[C@H](O)CC3)c2)c1` (single isomer, unassigned) [Example 154] the value was more than 10 µM. On the same count and under the same terms, for `CS(=O)(=O)Nc1cc(Cl)cc(NC(=O)c2cnn([C@@H]3CC[C@H]3O)c2)c1` (single isomer, unassigned) [Example 306a] the value was more than 10 µM; for `CS(=O)(=O)Nc1cc(Cl)cc(NC(=O)c2cnn([C@H]3CC[C@H]3O)c2)c1` (single isomer, unassigned) [Example 306b], more than 10 µM; for `CS(=O)(=O)Nc1cc(Cl)cc(NC(=O)c2cn(-c3ccccc3)cn2)c1` [Example 1, N-(3-chloro-5-(methylsulfonamido)phenyl)-1-phenyl-1H-imidazole-4-carboxamide], 16.4 µM. As for `CS(=O)(=O)Nc1cc(F)cc(NC(=O)c2c[nH]c(Br)c2)c1` [Example 2], the EC50 was more than 30 µM. In the case of `Cc1cc(C(=O)Nc2cc(F)cc(NS(C)(=O)=O)c2)c[nH]1` [Example 5], the EC50 is more than 30 µM. On the same count and under the same terms, the result for `CS(=O)(=O)Nc1cc(Cl)cc(NC(=O)c2c[nH]c(-c3ccccc3)n2)c1` [Example 6] reads 9.34 µM.

In the case of `CS(=O)(=O)Nc1cc(Cl)cc(NC(=O)c2cc(-c3ccccc3)co2)c1` [Example 7], the EC50 is 24.2 µM. On to `CS(=O)(=O)Nc1cc(Cl)cc(NC(=O)c2cc(-c3ccccc3)c[nH]2)c1` [Example 8], for which the EC50 is 5.52 µM.

Regarding `CS(=O)(=O)Nc1cc(Cl)cc(NC(=O)c2nc(-c3ccccc3)c[nH]2)c1` [Example 9], the concentration giving a half-maximal response (EC50) came out at 30 µM. The same measure, in the same setting: for `Cc1ccc(C(=O)Nc2cc(Br)cc(NS(C)(=O)=O)c2)cc1-n1cccn1` [Example 10] the value was 12.3 µM. `Cc1sc(C(=O)Nc2cc(Cl)cc(NS(C)(=O)=O)c2)cc1-c1ccccc1` [Example 11]: the EC50 came out at 0.851 µM. Take `CS(=O)(=O)Nc1cc(Cl)cc(NC(=O)c2cccc(-c3cccc(C#N)c3)c2)c1` [Example 13]: the EC50 was found to be 7.97 µM. `CS(=O)(=O)Nc1cc(I)cc(NC(=O)c2cc(-c3ccccc3)cs2)c1` [Example 16]: the EC50 came out at 3.51 µM. As for `CS(=O)(=O)Nc1cc(Br)cc(NC(=O)c2cc(-c3ccccc3OCc3ccccc3)cs2)c1` [Example 30], the EC50 is 0.687 µM.

Consider `CS(=O)(=O)Nc1cc(Br)cc(NC(=O)c2cnn(-c3cc(C#N)ccn3)c2)c1` [Example 38], for which the EC50 came to 0.933 µM. For `CS(=O)(=O)Nc1cc(Br)cc(NC(=O)c2cnn(-c3ccc(F)cn3)c2)c1` [Example 39], the EC50 was 0.884 µM. In the case of `CS(=O)(=O)Nc1cc(Br)cc(NC(=O)c2cnn(-c3cnccn3)c2)c1` [Example 40], the EC50 came out at 1.15 µM. In the case of `CS(=O)(=O)Nc1cc(Br)cc(NC(=O)c2cnn(-c3ccc(C#N)cn3)c2)c1` [Example 41], the EC50 was found to be 4.34 µM. The same measure, in the same setting: for `CS(=O)(=O)Nc1cc(Br)cc(NC(=O)c2cnn(-c3ccc(C(F)(F)F)cn3)c2)c1` [Example 43] the value was 4.71 µM; for `Cc1cccc(C#N)c1-n1cc(C(=O)Nc2cc(Br)cc(NS(C)(=O)=O)c2)cn1` [Example 44], 4.19 µM.

`Cc1cccnc1-n1cc(C(=O)Nc2cc(Br)cc(NS(C)(=O)=O)c2)cc1C` [Example 45]: the EC50 amounted to 0.563 µM. The same measure, in the same setting: the result for `CS(=O)(=O)Nc1cc(Cl)cc(NC(=O)c2cnn(-c3ncccc3C#N)c2)c1` [Example 46] reads 2.25 µM; that for `CS(=O)(=O)Nc1cc(Cl)cc(NC(=O)c2cnn(-c3ncccc3C(F)(F)F)c2)c1` [Example 47], 6.73 µM; that for `CS(=O)(=O)Nc1cc(Br)cc(NC(=O)c2cnn(C3CCCCC3)c2)c1` [Example 48], 1.41 µM. Still for that read-out and setting: the result for `CS(=O)(=O)Nc1cc(Br)cc(NC(=O)c2cnn(-c3ncccn3)c2)c1` [Example 50, N-(3-bromo-5-(methylsulfonamido)phenyl)-1-(pyrimidin-2-yl)-1H-pyrazole-4-carboxamide] reads 0.895 µM; that for `CS(=O)(=O)Nc1cc(Br)cc(NC(=O)c2cnn(-c3cccc(C#N)c3)c2)c1` [Example 52], 3.01 µM; that for `Cc1ccc(C#N)cc1-n1cc(C(=O)Nc2cc(Br)cc(NS(C)(=O)=O)c2)cn1` [Example 53], 4.95 µM.

Regarding `Cc1cccnc1-n1cc(C(=O)Nc2cc(Cl)cc(NS(C)(=O)=O)c2)cn1` [Example 54], the EC50 was 0.953 µM. The same measure, in the same setting: the result for `CS(=O)(=O)Nc1cc(Br)cc(NC(=O)c2cnn(-c3cccc(C(F)F)n3)c2)c1` [Example 56] reads 7.43 µM; that for `CS(=O)(=O)Nc1cc(Br)cc(NC(=O)c2cnn(-c3ccccc3C=O)c2)c1` [Example 58], 1.41 µM. In the case of `CS(=O)(=O)Nc1cc(Br)cc(NC(=O)c2cc(-n3cccn3)cs2)c1` [Example 60], the EC50 came out at 0.201 µM.

With `CC(Oc1cccnc1-n1cc(C(=O)Nc2cc(Cl)cc(NS(C)(=O)=O)c2)cn1)c1ccccc1` (centres unmarked) [Example 62], the EC50 stood at 6.8 µM. `CS(=O)(=O)Nc1cc(Cl)cc(NC(=O)c2cnn(-c3ncccc3OCc3ccccn3)c2)c1` [Example 63]: the EC50 turned out to be 2.43 µM. Regarding `CS(=O)(=O)Nc1cc(Cl)cc(NC(=O)c2cnn(-c3ncccc3OCc3ccncc3)c2)c1` [Example 64], the EC50 was 5.64 µM. Take `CS(=O)(=O)Nc1cc(Cl)cc(NC(=O)c2cnn(-c3ncccc3OCc3cnco3)c2)c1` [Example 66]: the EC50 was found to be 4.87 µM. On to `CS(=O)(=O)Nc1cc(Cl)cc(NC(=O)c2cnn(-c3ncccc3OCc3ccccc3)c2)c1` [Example 68], for which the EC50 was 0.278 µM. For the compound `CS(=O)(=O)Nc1cc(Cl)cc(NC(=O)c2cnn(-c3ncccc3OCc3ccc(F)cc3)c2)c1` [Example 69], the EC50 stood at 0.661 µM.

As for `CS(=O)(=O)Nc1cc(F)cc(NC(=O)c2cc(-c3ccccc3)cs2)c1` [Example 73], the 50% effective concentration (EC50) amounted to 11.2 µM. `CCS(=O)(=O)Nc1cc(F)cc(NC(=O)c2cc(-c3ccccc3)cs2)c1` [Example 74]: the EC50 was found to be 8.32 µM. The same measure, in the same setting: the result for `CS(=O)(=O)Nc1cc(Cl)cc(NC(=O)c2cc(-c3ccccc3)cs2)c1` [Example 75] reads 1.64 µM; that for `CS(=O)(=O)Nc1cc(Br)cc(NC(=O)c2cc(-c3cccnc3)cs2)c1` [Example 78], 0.457 µM.

In the case of `CCn1cc(C(=O)Nc2cc(Cl)cc(NS(C)(=O)=O)c2)cc1-c1ccccc1` [Example 79, N-(3-chloro-5-(methylsulfonamido)phenyl)-1-ethyl-5-phenyl-1H-pyrrole-3-carboxamide], the EC50 is 1.12 µM. Same read-out and setting: for `CS(=O)(=O)Nc1cc(Cl)cc(NC(=O)c2cc(-c3ccccc3)n(CC(F)(F)F)c2)c1` [Example 80] the value was 3.09 µM. Same read-out and setting: the result for `Cn1cc(C(=O)Nc2cc(Cl)cc(NS(C)(=O)=O)c2)cc1Br` [Example 83, 5-bromo-N-(3-chloro-5-(methylsulfonamido)phenyl)-1-methyl-1H-pyrrole-3-carboxamide] reads 0.911 µM; that for `Cc1cc(C(=O)Nc2cc(Br)cc(NS(C)(=O)=O)c2)cn1C1CCCCC1` [Example 85, N-(3-bromo-5-(methylsulfonamido)phenyl)-1-cyclohexyl-5-methyl-1H-pyrrole-3-carboxamide], 2.76 µM; that for `CC(=O)N1CCN(c2ccc(-n3cc(C(=O)Nc4cc(Br)cc(NS(C)(=O)=O)c4)cn3)nc2)CC1` [Example 86, 1-(5-(4-acetylpiperazin-1-yl)pyridin-2-yl)-N-(3-bromo-5-(methylsulfonamido)phenyl)-1H-pyrazole-4-carboxamide], 0.585 µM. With `CC(=O)N1CCN(c2cnc(-n3cc(C(=O)Nc4cc(Br)cc(NS(C)(=O)=O)c4)cn3)c(C)c2)CC1` [Example 87], the EC50 worked out at 2.46 µM. Consider `CN1CCN(c2ccc(-n3cc(C(=O)Nc4cc(Br)cc(NS(C)(=O)=O)c4)cn3)nc2)CC1=O` [Example 88], for which the 50% effective concentration (EC50) is more than 10 µM. For the compound `CN(C)C(=O)N1CCN(c2ccc(-n3cc(C(=O)Nc4cc(Cl)cc(NS(C)(=O)=O)c4)cn3)nc2)CC1` [Example 89], the EC50 was determined as 0.667 µM. For the compound `CS(=O)(=O)Nc1cc(Cl)cc(NC(=O)c2cnn(-c3ccc(N4CCCC4=O)cn3)c2)c1` [Example 90], the EC50 came out at 1.06 µM. Turning to `CS(=O)(=O)Nc1cc(Cl)cc(NC(=O)c2cnn(-c3cc(N4CCOCC4)ccn3)c2)c1` [Example 91], the EC50 amounted to 0.382 µM. Still for that read-out and setting: the result for `CS(=O)(=O)Nc1cc(Br)cc(NC(=O)c2ccc3c(c2)[nH]c(=O)n3Cc2ccccc2)c1` [Example 99, 1-benzyl-N-(3-bromo-5-(methylsulfonamido)phenyl)-2-oxo-2,3-dihydro-1H-benzo[d]imidazole-5-carboxamide] reads more than 10 µM; that for `CS(=O)(=O)Nc1cc(Cl)cc(NC(=O)c2cccc(-c3ccnc(Cl)c3)c2)c1` [Example 102, N-(3-chloro-5-(methylsulfonamido)phenyl)-3-(2-chloropyridin-4-yl)benzamide], more than 30 µM; that for `CS(=O)(=O)Nc1cc(Br)cc(NC(=O)c2cnn(-c3ccccc3C(O)C(F)(F)F)c2)c1` (centres unmarked) [Example 103, N-(3-bromo-5-(methylsulfonamido)phenyl)-1-(2-(2,2,2-trifluoro-1-hydroxyethyl)phenyl)-1H-pyrazole-4-carboxamide], 5.31 µM. The same measure, in the same setting: for `CS(=O)(=O)Nc1cc(Br)cc(NC(=O)c2cc(Cc3ccc[nH]3)cs2)c1` [Example 104, 4-((1H-pyrrol-2-yl)methyl)-N-(3-bromo-5-(methylsulfonamido)phenyl)-thiophene-2-carboxamide] the value was 5.49 µM.

Staying with this assay, now noted: Homo sapiens, HCT-116, read-out: DHX9 Cellular Target Engagement EC50.
In the case of `CS(=O)(=O)Nc1cc(F)cc(NC(=O)c2cc(Br)cs2)c1` [Example 71, 4-bromo-N-(3-fluoro-5-(methylsulfonamido)phenyl)thiophene-2-carboxamide], the EC50 was 26.3 µM.

Usually EC50 stands for the concentration that produces a half-maximal response.
